Experimental data as given in patent publication US10233184B2, “7-substituted sulfonimidoylpurinone compounds and derivatives for the treatment and prophylaxis of virus infection” (Hoffmann-La Roche Inc., priority 2016, dated 2019).
Where two headings read alike, the source gives them in different places.

What was measured:
human TLR7 = target: T1, human TLR7 (Homo sapiens, UniProt Q9NYK1); test: HEK293-Blue-hTLR-7 cells assay (SEAP reporter); type: cell-based; conditions: for EC50: HEK293-Blue-hTLR-7 cells, SEAP reporter, 20 hrs; for Ratio (EC50(prodrug)/EC50(active form)): EC50 of prodrug over EC50 of corresponding active form
T1 sequence (Q9NYK1 27-1049): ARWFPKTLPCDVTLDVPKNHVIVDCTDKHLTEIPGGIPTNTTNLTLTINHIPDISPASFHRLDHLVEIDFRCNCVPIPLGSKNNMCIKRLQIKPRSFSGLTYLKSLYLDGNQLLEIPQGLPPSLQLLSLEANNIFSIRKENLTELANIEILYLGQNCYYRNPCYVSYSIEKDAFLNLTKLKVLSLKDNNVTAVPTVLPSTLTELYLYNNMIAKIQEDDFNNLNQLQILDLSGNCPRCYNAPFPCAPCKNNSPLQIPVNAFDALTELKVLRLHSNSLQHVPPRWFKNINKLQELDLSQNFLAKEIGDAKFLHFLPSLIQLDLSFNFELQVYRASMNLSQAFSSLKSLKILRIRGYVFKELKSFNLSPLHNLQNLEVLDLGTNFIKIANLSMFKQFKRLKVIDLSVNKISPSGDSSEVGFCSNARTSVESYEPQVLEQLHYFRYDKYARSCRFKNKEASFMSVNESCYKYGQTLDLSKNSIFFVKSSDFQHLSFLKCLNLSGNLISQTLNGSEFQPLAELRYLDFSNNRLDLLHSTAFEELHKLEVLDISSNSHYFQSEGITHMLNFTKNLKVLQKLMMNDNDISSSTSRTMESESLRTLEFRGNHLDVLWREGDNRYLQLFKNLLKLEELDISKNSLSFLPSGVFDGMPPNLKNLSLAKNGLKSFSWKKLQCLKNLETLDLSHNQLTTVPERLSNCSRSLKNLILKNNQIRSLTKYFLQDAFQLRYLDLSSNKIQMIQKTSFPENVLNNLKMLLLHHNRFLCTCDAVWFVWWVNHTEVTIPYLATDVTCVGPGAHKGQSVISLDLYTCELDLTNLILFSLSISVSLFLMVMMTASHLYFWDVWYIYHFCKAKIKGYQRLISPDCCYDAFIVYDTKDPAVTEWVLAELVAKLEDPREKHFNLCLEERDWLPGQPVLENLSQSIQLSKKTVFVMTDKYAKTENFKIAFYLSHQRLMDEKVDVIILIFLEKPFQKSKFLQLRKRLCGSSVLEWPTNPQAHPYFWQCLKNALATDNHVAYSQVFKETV
From the text: HEK293-Blue-hTLR-7 Cells Assay:
A stable HEK293-Blue-hTLR-7 cell line was purchased from InvivoGen (Cat.#: hkb-htlr7, San Diego, Calif., USA). These cells were designed for studying the stimulation of human TLR7 by monitoring the activation of NF-κB. A SEAP (secreted embryonic alkaline phosphatase) reporter gene was placed under the control of the IFN-β minimal promoter fused to five NF-κB and AP-1-binding sites. The SEAP was induced by activating NF-κB and AP-1 via stimulating HEK-Blue hTLR7 cells with TLR7 ligands. Therefore the reporter expression was regulated by the NF-κB promoter upon stimulation of human TLR7 for 20 hrs. The cell culture supernatant SEAP reporter activity was determined using QUANTI-Blue™ kit (Cat.#: rep-qbl, Invivogen, San Diego, Calif., USA) at a wavelength of 640 nm, a detection medium that turns purple or blue in the presence of alkaline phosphatase.
HEK293-Blue-hTLR7 cells were incubated at a density of 250,000˜450,000 cells/mL in a volume of 180 μL in a 96-well plate in Dulbecco's Modified Eagle's medium (DMEM) containing 4.5 g/L glucose, 50 U/mL penicillin, […], […], 2 mM L-glutamine, 10% (V/V) heat-inactivated fetal bovine serum for 24 hrs. Then the HEK293-Blue-hTLR-7 cells were incubated with addition of 20 μL test compound in a serial dilution in the presence of final DMSO at 1% and perform incubation under 37° C. in a CO2 incubator for 20 hrs. Then 20 μL of the supernatant from each well was incubated with 180 μL Quanti-blue substrate solution at 37° C. for 2 hrs and the absorbance was read at 620˜655 nm using a spectrophotometer. The signalling pathway that TLR7 activation leads to downstream NF-κB activation has been widely accepted, and therefore similar reporter assay was also widely used for evaluating TLR7 agonist (Tsuneyasu Kaisho and Takashi Tanaka, Trends in Immunology, Volume 29, Issue 7, July 2008, […]; Hiroaki Hemmi et al, Nature Immunology 3, 196-200 (2002)).
The Compounds and Examples of the present invention were tested in HEK293-hTLR-7 assay for their TLR7 agonism activity as described herein and results are listed in Table 1. […] The calculated ratio of EC50(prodrug)/EC50(active form) were within the range from 32 to about 7600.

[1] = Single dose PK study in male Wister-Han rats; type: in vivo; conditions: male, Wister-Han, rat, plasma, po, 5 mg/kg, 5 mg/kg oral dosing of active form
Protocol: The single dose PK in Male Wister-Han Rats was performed to assess pharmacokinetic properties of tested compounds. Two groups of animals were dosed via Gavage (POE) of the respective compound. […] Blood samples were placed into tubes containing EDTA-K2 anticoagulant and centrifuged at 5000 rpm for 6 min at 4° C. to separate plasma from the samples. After centrifugation, the resulting plasma was transferred to clean tubes for bioanalysis of both prodrug and active form on LC/MS/MS. In the groups that prodrug were dosed, the concentration of prodrugs in the plasma samples was under the detection limit. The “tested compound” in Table 8 was used as the internal standard for testing the metabolite (active form) of “dose compound” in vivo. The pharmacokinetic parameters were calculated using non-compartmental module of WinNonlin® Professional 6.2. The peak concentration (Cmax) was recorded directly from experimental observations. The area under the plasma concentration-time curve (AUC0-t) was calculated using the linear trapezoidal rule up to the last detectable concentration. Cmax and AUC0-last are two critical PK parameters related to the in vivo efficacy of the tested compound. Compounds with higher Cmax and AUC0-last will lead to the better in vivo efficacy.

[2] = active form, read-out: HEK293-hTLR-7 EC50 (Active form)
[3] = prodrug, read-out: HEK293-hTLR-7 EC50 (Prodrug)

Row | Compound | EC50 (human TLR7; [2]) [µM] | Ratio (EC50(prodrug)/EC50(active form)) (human TLR7) | EC50 (human TLR7; [3]) [µM] | also measured
1 | CCCS(=N)(=O)c1nc(N)c2[nH]c(=O)n(Cc3ccccc3)c2n1 (single isomer, unassigned) [Compound 1e-B] | 0.086 |  |  | 
2 | CCC[S@](=N)(=O)c1nc(N)c2[nH]c(=O)n(Cc3ccc(Cl)cc3)c2n1 (single isomer, unassigned) [Compound 34e-A] | 0.014 |  |  | 
3 | CCC[S@](=N)(=O)c1nc(N)c2[nH]c(=O)n(Cc3ccc(Cl)cc3)c2n1 (single isomer, unassigned) [Compound 34e-B] | 0.011 |  |  | 
4 | CCCS(=N)(=O)c1nc(N)c2[nH]c(=O)n(Cc3ccc(C)cc3)c2n1 (single isomer, unassigned) [Compound 36g-A] | 0.019 |  |  | 
5 | CCCS(=N)(=O)c1nc(N)c2[nH]c(=O)n(Cc3ccc(C)cc3)c2n1 (single isomer, unassigned) [Compound 36g-B] | 0.022 |  |  | 
6 | CCC[S@](=N)(=O)c1nc(N)c2c(n1)n(Cc1ccc(C)cc1)c(=O)n2C(=O)N1CCCC1 (stereo in doubt) [Example 37-B, 6-amino-2-[S(R)-propylsulfonimidoyl]-9-(p-tolylmethyl)-7-(pyrrolidine-1-carbonyl)purin-8-one] |  | 2154.5 | 47.4 | 
7 | CCC[S@](=N)(=O)c1nc(N)c2c(n1)n(Cc1ccc(C)cc1)c(=O)n2C(=O)N(C)CCOC (stereo in doubt) [Example 38-B, 6-amino-N-(2-methoxyethyl)-N-methyl-8-oxo-2-[S(R)-propylsulfonimidoyl]-9-(p-tolylmethyl)purine-7-carboxamide] |  | 886.4 | 19.5 | 
8 | CCN(C)C(=O)n1c(=O)n(Cc2ccc(C)cc2)c2nc([S@@](=N)(=O)CC)nc(N)c21 (stereo in doubt) [Example 44-B, 6-Amino-N-ethyl-2-[S(R)-ethylsulfonimidoyl]-N-methyl-8-oxo-9-(p-tolylmethyl)purine-7-carboxamide] |  | 879.1 | 96.7 | 
9 | CCCS(=N)(=O)c1nc(N)c2[nH]c(=O)n(Cc3ccccc3)c2n1 (stereo not shown) [Compound 1e, 6-amino-9-benzyl-2-(propylsulfonimidoyl)-7H-purin-8-one] | 0.065 |  |  | 
10 | CCS(=N)(=O)c1nc(N)c2[nH]c(=O)n(Cc3ccc(Cl)cc3)c2n1 (stereo not shown) [Compound 41c, 6-amino-9-[(4-chlorophenyl)methyl]-2-(ethylsulfonimidoyl)-7H-purin-8-one] | 0.053 |  |  | 
11 | CCCCN(C)C(=O)n1c(=O)n(Cc2ccc(Cl)cc2)c2nc([S@@](=N)(=O)CCC)nc(N)c21 [Example 34-A, 6-Amino-N-butyl-9-[(4-chlorophenyl)methyl]-N-methyl-8-oxo-2-[S(S)-propylsulfonimidoyl]purine-7-carboxamide] |  | 428.6 | 6 | 
12 | CCCCN(C)C(=O)n1c(=O)n(Cc2ccc(Cl)cc2)c2nc([S@@](=N)(=O)CCC)nc(N)c21 [Example 34-B, 6-amino-N-butyl-9-[(4-chlorophenyl)methyl]-N-methyl-8-oxo-2-[S(S)-propylsulfonimidoyl]purine-7-carboxamide] |  | 578.2 | 6.36 | 
13 | CCC[S@](=N)(=O)c1nc(N)c2c(n1)n(Cc1ccc(C)cc1)c(=O)n2C(=O)N1CCCC1 [Example 37-A, 6-Amino-2-[S(S)-propylsulfonimidoyl]-9-(p-tolylmethyl)-7-(pyrrolidine-1-carbonyl)purin-8-one] |  | 1400 | 26.6 | 
14 | CCC[S@](=N)(=O)c1nc(N)c2c(n1)n(Cc1ccc(C)cc1)c(=O)n2C(=O)N(C)CCOC [Example 38-A, 6-Amino-N-(2-methoxyethyl)-N-methyl-8-oxo-2-[S(S)-propylsulfonimidoyl]-(p-tolylmethyl)purine-7-carboxamide] |  |  | 26.2 | 
15 | CCCS(=N)(=O)c1nc(N)c2c(n1)n(Cc1ccc(C)cc1)c(=O)n2C(=O)N(C)CC (stereo not shown) [Example 39, 6-Amino-N-ethyl-N-methyl-8-oxo-2-(propylsulfonimidoyl)-9-(p-tolylmethyl)purine-7-carboxamide] |  | 159.3 | 4.3 | 
16 | CCCCN(C)C(=O)n1c(=O)n(Cc2ccc(C)cc2)c2nc(S(=N)(=O)CCC)nc(N)c21 (stereo not shown) [Example 40, 6-Amino-N-butyl-N-methyl-8-oxo-2-(propylsulfonimidoyl)-9-(p-tolylmethyl)purine-7-carboxamide] |  | 1955.6 | 52.8 | 
17 | CCCN(C)C(=O)n1c(=O)n(Cc2ccc(Cl)cc2)c2nc(S(=N)(=O)CC)nc(N)c21 (stereo not shown) [Example 41] |  | 679.2 | 36 | 
18 | CCN(C)C(=O)n1c(=O)n(Cc2ccc(C)cc2)c2nc([S@@](=N)(=O)CC)nc(N)c21 [Example 44-A, 6-Amino-N-ethyl-2[S(S)-ethylsulfonimidoyl]-N-methyl-8-oxo-9-(p-tolylmethyl)purine-7-carboxamide] |  | 1868.6 | 65.4 | 
19 | CCS(=O)(=O)c1nc(N)c2[nH]c(=O)n(Cc3ccc(Cl)cc3)c2n1 [Example S-2, reference compound] |  |  |  | AUC(0-t) [1]: 0.748 µM·h; Cmax [1]: 52.7 nM; concentration at 0.25 h ([1]; 0.25 h): 9.49 nM; concentration at 0.5 h ([1]; 0.5 h): 16.7 nM; concentration at 1 h ([1]; 1 h): 19.3 nM; concentration at 2 h ([1]; 2 h): 24.9 nM; concentration at 4 h ([1]; 4 h): 47.5 nM; concentration at 8 h ([1]; 8 h): 52.7 nM; concentration at 24 h ([1]; 24 h): 4.9 nM
